The test system of test [1] is late stage HCC. The settings on record: patients with late stage HCC, on average; cited from earlier work.
The target of test [2] is MYC-AURKA interaction (Mus musculus (Mouse), UniProt P97477). Description: Proximity ligation assay (PLA) for MYC and AURKA in NMP53^−/− cells. It is filed as cell-based, murine. The settings on record: 24 h after treatment. Here is the method:
To examine whether this MYC degradation is associated with MYC-AURKA PPI disruption, the inventors performed proximity ligation assays (PLA) in NMP53^−/− cells. For Proximity Ligation Assay (PLA), 50 000 cells were seeded on 12 mm glass slides placed in 6 well plates. On the next day, the cells were treated with the indicated compounds or the corresponding DMSO concentration for 2 h (compound 2c [N-(5-((4-(1H-pyrazole-4-yl)benzyl)amino)-2-fluorophenyl)-3-(furan-2-yl)propanamide] and compound 3a [N-(2-fluoro-5-((4-(1-methyl-1H-pyrazole-4-yl)benzyl)amino)phenyl)-3-(furan-2-yl)propanamide]) or 24 h (alisertib) and fixed for 10 min in 100% MeOH at −20° C. The glass slides were removed from the 6 well plates and the cells permeabilized with TBS+0.3% Triton X-100 for 5 min. After washing with PBS and blocking with 5% BSA in TBS+0.05% Tween for 30 min, the slides were incubated with MYC (Abeam ab32072, 1:200) and AURKA (Abcam ab13824, 1:200) specific antibodies in 1% BSA in TBS+0.05% Tween for 120 min at RT and washed 3 times with PBS for 5 min, wherein the MYC/TPX2 and AURKA specific antibodies are derived from a different species. After a 20 min pre-incubation of two PLA probes, directed against either species of the MYC/TPX2 and AURKA specific antibodies, at RT (DUO92001 and DUO92005 Sigma Aldrich, diluted 1:10 in 1% BSA in TBS+0.05% Tween), the slides were incubated with the probes for 60 min at 37° C. in a humidified chamber. The slides were washed 3 times with 1× wash buffer A (Sigma Aldrich DUO82049) for 5 min and incubated with the ligase solution (ligase diluted 1:40 in 5× ligase buffer and ddH2O, Sigma Aldrich DUO92008) for 60 min at 37° C. in a humidified chamber. […] The foci per cell were counted in a way that the cytoplasmic foci are counted to the cell with the closest nucleus (DAPI). Significance was calculated with the GraphPad Prism 8.4.0 software (GraphPad Software, La Jolla, CA) by using the nonparametric Mann Whitney test.

Each structure is given as a SMILES string.

Chain of MYC-AURKA interaction (P97477 whole entry): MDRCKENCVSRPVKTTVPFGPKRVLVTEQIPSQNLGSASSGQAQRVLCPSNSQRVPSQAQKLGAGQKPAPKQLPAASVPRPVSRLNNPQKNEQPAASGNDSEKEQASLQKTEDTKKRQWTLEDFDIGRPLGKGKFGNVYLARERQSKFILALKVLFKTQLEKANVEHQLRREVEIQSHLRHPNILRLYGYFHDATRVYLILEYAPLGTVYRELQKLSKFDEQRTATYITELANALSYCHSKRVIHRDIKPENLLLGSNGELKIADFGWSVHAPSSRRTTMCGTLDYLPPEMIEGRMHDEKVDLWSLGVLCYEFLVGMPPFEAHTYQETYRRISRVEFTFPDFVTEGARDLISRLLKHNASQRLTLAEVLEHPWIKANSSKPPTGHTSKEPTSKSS

On to `CNC(=O)c1cc(Oc2ccc(NC(=O)Nc3ccc(Cl)c(C(F)(F)F)c3)cc2)ccn1` [sorafenib], for which the prolonged survival in test [1] was 2.8 months.
Take `COc1cc(Nc2ncc3c(n2)-c2ccc(Cl)cc2C(c2c(F)cccc2OC)=NC3)ccc1C(=O)O` [alisertib, reference compound]: in test [2], the “reduction of the MYC-AURKA interaction compared to DMSO” value worked out at 60%.

These data come from patent US20240101538A1, “PROTEIN-PROTEIN INTERACTION MODULATORS OF AURORA KINASE A AND THEIR USE IN THE PREVENTION AND/OR TREATMENT OF CANCER” (EBERHARD KARLS UNIVERSITÄT TÜBINGEN, priority 2020, published 2024).
